Experimental data published in ChEMBL document CHEMBL3046293, “Fungicidal Activities of -Methoxyphenylacetic Acid Derivatives” (2002).

Tests used:
Assay type in all cases: functional
[1] = tested on: Pyricularia oryzae; test: Fungicidal activity against Magnaporthe oryzae Cav. race 003 assessed as rice blast disease control at 125 ppm treated 24 hr before inoculation by preventive manner
[2] = tested on: Botrytis cinerea; test: Fungicidal activity against Botryotinia fuckeliana assessed as cucumber gray mold disease control at 31.3 ppm treated 24 hr before inoculation by preventive manner
[3] = tested on: Podosphaera fuliginea; test: Fungicidal activity against Podosphaera fuliginea assessed as cucumber powdery mildew disease control at 500 ppm treated 24 hr before inoculation by preventive manner
[4] = tested on: Pseudoperonospora cubensis; test: Fungicidal activity against Pseudoperonospora cubensis assessed as cucumber downy mildew disease control at 0.5 ppm foliar application 24 hr after inoculation by curative manner
[5] = tested on: Pseudoperonospora cubensis; test: Fungicidal activity against Pseudoperonospora cubensis assessed as cucumber downy mildew disease control at 7.8 ppm foliar application 24 hr before inoculation onto the adaxial(treated) surface of leaf by preventive manner
[6] = tested on: Pseudoperonospora cubensis; test: Fungicidal activity against Pseudoperonospora cubensis assessed as cucumber downy mildew disease control at 2 ppm foliar application 24 hr before inoculation onto the abaxial(treated) surface of leaf by preventive manner
[7] = tested on: Pseudoperonospora cubensis; test: Fungicidal activity against Pseudoperonospora cubensis assessed as cucumber downy mildew disease control at 125 ppm foliar application 24 hr before inoculation onto the abaxial(treated) surface of leaf by preventive manner
[8] = tested on: Pseudoperonospora cubensis; test: Fungicidal activity against Pseudoperonospora cubensis assessed as cucumber downy mildew disease control at 125 ppm foliar application 24 hr after inoculation by curative manner
[9] = tested on: Pseudoperonospora cubensis; test: Fungicidal activity against Pseudoperonospora cubensis assessed as cucumber downy mildew disease control at 31.3 ppm foliar application 24 hr after inoculation by curative manner
[10] = tested on: Pseudoperonospora cubensis; test: Fungicidal activity against Pseudoperonospora cubensis assessed as cucumber downy mildew disease control at 31.3 ppm foliar application 24 hr before inoculation onto the adaxial(treated) surface of leaf by preventive manner
[11] = tested on: Pseudoperonospora cubensis; test: Fungicidal activity against Pseudoperonospora cubensis assessed as cucumber downy mildew disease control at 31.3 ppm foliar application 24 hr before inoculation onto the abaxial(treated) surface of leaf by preventive manner
[12] = tested on: Pseudoperonospora cubensis; test: Fungicidal activity against Pseudoperonospora cubensis assessed as cucumber downy mildew disease control at 0.5 ppm foliar application 24 hr before inoculation onto the adaxial(treated) surface of leaf by preventive manner
[13] = tested on: Pseudoperonospora cubensis; test: Fungicidal activity against Pseudoperonospora cubensis assessed as cucumber downy mildew disease control at 125 ppm foliar application 24 hr before inoculation onto the adaxial(treated) surface of leaf by preventive manner
[14] = tested on: Pseudoperonospora cubensis; test: Fungicidal activity against Pseudoperonospora cubensis assessed as cucumber downy mildew disease control at 7.8 ppm foliar application 24 hr after inoculation by curative manner
[15] = tested on: Pseudoperonospora cubensis; test: Fungicidal activity against Pseudoperonospora cubensis assessed as cucumber downy mildew disease control at 2 ppm foliar application 24 hr after inoculation by curative manner
[16] = tested on: Pseudoperonospora cubensis; test: Fungicidal activity against Pseudoperonospora cubensis assessed as cucumber downy mildew disease control at 2 ppm foliar application 24 hr before inoculation onto the adaxial(treated) surface of leaf by preventive manner
[17] = tested on: Pseudoperonospora cubensis; test: Fungicidal activity against Pseudoperonospora cubensis assessed as cucumber downy mildew disease control at 0.5 ppm foliar application 24 hr before inoculation onto the abaxial(treated) surface of leaf by preventive manner
[18] = tested on: Pseudoperonospora cubensis; test: Fungicidal activity against Pseudoperonospora cubensis assessed as cucumber downy mildew disease control at 7.8 ppm foliar application 24 hr before inoculation onto the abaxial(treated) surface of leaf by preventive manner

SMILES | Activity [1] | Activity [2] | Activity [3] | Activity [4] | Activity [5] | Activity [6] | Activity [7] | Activity [8] | Activity [9] | Activity [10] | Activity [11] | Activity [12] | Activity [13] | Activity [14] | Activity [15] | Activity [16] | Activity [17] | Activity [18]
CNC(=O)C(OC)c1cccc(COc2cc(C)cc(C)c2)c1 (stereo not drawn) | 90% | 50% | <90% | – | – | – | – | – | – | – | – | – | – | – | – | – | – | –
COC(=O)C(C)N(C(=O)Cc1ccccc1)c1c(C)cccc1C (stereo not drawn) [BENALAXYL] | – | – | – | 0% | 20% | 20% | 97% | 80% | 80% | 70% | 70% | 0% | 97% | 40% | 10% | 20% | 0% | 40%
